Data: US20040186166A1, “Cannabinoid analogs as peroxisome proliferator activated nuclear receptor gamma activators” (priority 2002, published 2004)

Experiments:
[1] = target: T1, PPARα (Mus musculus, UniProt P23204); experiment: PPRE-TK-LUC reporter transient transfection, PPARα; assay type: cell-based; settings: 1 to 20 μM AJA
T1 construct: expressed in transfected cells; host or cells: HEK293 / HEK293T
T1 sequence (P23204 1-468): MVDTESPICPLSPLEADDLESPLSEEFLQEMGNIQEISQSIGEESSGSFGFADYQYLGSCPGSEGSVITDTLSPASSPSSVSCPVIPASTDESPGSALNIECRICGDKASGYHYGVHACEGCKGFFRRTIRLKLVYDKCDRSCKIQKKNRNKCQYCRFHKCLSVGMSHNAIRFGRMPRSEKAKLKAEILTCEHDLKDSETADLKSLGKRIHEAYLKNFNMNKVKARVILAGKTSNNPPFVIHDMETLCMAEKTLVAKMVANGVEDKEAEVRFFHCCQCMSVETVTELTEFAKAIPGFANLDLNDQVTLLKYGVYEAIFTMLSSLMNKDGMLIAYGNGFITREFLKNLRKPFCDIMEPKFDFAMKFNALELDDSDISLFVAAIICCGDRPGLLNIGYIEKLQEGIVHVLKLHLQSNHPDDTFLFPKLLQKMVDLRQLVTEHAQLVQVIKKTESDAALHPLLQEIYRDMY
Description: (§1) For PPARγ activation assay, HEK293 cells were plated in 12-well cell culture plates and maintained in Dulbecco's modified Eagle's medium (DMEM) supplemented with 10% fetal bovine serum (FBS) at 37° C. under 5% CO2. Cells were changed to phenol red-free DMEM supplemented with 10% charcoal-stripped fetal bovine serum 3 hours before transfection by a standard calcium-phosphate precipitation method. Twelve hours after transfection, the cells were washed with phosphate-buffered saline (PBS) and fed again with fresh medium containing the indicated concentrations of compounds. After 36 hours, cells were harvested for β-galactosidase and luciferase activities as described previously (Li et al., Proc Natl Acad Sci USA 94:8479-84, 1997). The average normalized luciferase activity was determined via triplicate experiments. For IL-8 promoter assay, HeLa cells were maintained and transfected in the same way as described above. After transfection, cells were recovered for 4 hours before treatment with AJA, GW347845, or solvent. After 3-4 hours, cells were treated with or without 25 nM of phorbol myristate acetate (PMA) for 24 hours.
(§2) In an effort to confirm that AJA activates PPARγ selectively, the ability of AJA to activate PPARα and PPARδ was analyzed in a similar transient transfection assay.

[2] = animal models; cited from earlier work
[3] = target: T2, hRXRα (Homo sapiens, UniProt P19793); experiment: DR1-TK-LUC reporter assay, RXRα; assay type: cell-based; settings: saturating concentrations, HEK293 cells
T2 construct: expressed in transfected cells; host or cells: HEK293
T2 sequence (P19793 1-462): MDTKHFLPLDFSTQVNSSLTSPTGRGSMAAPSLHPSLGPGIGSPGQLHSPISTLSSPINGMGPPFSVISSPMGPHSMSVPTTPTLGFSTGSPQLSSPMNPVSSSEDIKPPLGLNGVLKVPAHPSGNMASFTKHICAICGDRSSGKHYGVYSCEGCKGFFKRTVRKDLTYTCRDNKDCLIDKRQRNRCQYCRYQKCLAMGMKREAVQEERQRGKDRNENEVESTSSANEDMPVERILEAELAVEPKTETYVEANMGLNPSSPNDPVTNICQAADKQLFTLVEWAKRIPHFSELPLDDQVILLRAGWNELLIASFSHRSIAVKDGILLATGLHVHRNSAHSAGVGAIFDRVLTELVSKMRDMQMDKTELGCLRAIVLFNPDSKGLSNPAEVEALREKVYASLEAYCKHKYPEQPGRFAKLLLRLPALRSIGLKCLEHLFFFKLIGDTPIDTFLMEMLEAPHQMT

[4] = system: human IL-8 promoter; experiment: IL-8 promoter luciferase assay, HeLa cells with PPARγ ΔAF2 mutant; assay type: cell-based; settings: cells transfected with PPARγ ΔAF2 mutant
Description: as §1, with “After 3-4 hours, cells were treated with or without 25 nM of phorbol myristate acetate (PMA) for 24 hours.” left out
The IL-8 luciferase reporter controlled by the human IL-8 promoter (-97/-69) was cotransfected with mPPARγ or mPPARγ ΔAF2 mutant into HeLa cells. […] The involvement of PPARγ in regulating IL-8 promoter activity was determined by comparing the IL-8 promoter activity in the presence of wild type PPARγ or its ΔAF2 mutant. […]

[5] = target: T1, PPARα; experiment: Partial protease (trypsin) digestion assay, PPARα; assay type: binding; settings: 2, 20 and 100 μM AJA
Description: Partial protease digestion was carried out as described by Leng et. al. (J Steroid Biochem Mol Biol 46:643-61, 1993). PPAR proteins were made by in vitro transcription/translation reactions in reticulocyte lysate according to the manufacture's instructions (Promega). AJA, GW347845, or vehicle alone was incubated with the 35S-labeled PPARs at room temperature for one hour before trypsin digestion. Reactions were stopped by boiling in SDS-containing sample buffer, and lysates were subjected to SDS-PAGE and autoradiography.
The PPAR proteins were synthesized and labeled with ^35S-methionine in reticulocyte lysate and incubated with AJA, GW347845, or vehicle alone at room temperature for one hour before trypsin digestion. The reactions were terminated by boiling in SDS-containing protein sample buffer. The proteolytic patterns of PPAR proteins were then analyzed by SDS-PAGE and autoradiography, and compared with vehicle-treated control samples.
The AJA concentrations required to protect PPARγ from trypsin digestion were further measured.

[6] = target: T3, PPARδ (Mus musculus, UniProt P35396); experiment: PPRE-TK-LUC reporter transient transfection, PPARδ; assay type: cell-based; settings: 20 μM AJA (FIG. 3C)
T3 construct: expressed in transfected cells; host or cells: HEK293 / HEK293T
T3 sequence (P35396 1-440): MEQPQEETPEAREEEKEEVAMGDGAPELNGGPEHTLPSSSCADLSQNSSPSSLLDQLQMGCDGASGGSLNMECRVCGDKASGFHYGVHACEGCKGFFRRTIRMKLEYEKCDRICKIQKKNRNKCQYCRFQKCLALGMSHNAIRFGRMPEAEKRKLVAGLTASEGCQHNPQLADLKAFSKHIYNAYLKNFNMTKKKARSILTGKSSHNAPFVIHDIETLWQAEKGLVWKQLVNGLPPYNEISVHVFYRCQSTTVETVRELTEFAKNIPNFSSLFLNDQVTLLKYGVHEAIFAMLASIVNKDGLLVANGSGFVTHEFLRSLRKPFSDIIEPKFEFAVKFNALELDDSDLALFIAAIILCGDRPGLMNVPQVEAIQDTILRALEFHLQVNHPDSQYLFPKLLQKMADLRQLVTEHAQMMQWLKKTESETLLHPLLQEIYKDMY
Description: as §1, §2

CCCCCCC(C)(C)c1cc(O)c2c(c1)OC(C)(C)[C@@H]1CC=C(C(=O)O)C[C@@H]21 [AJA, dimethylheptyl-THC-11-oic acid]
activation of PPARα [1]: no further activation was observed
psychoactivity [2]: does not show the typical psychoactive effect
activation of reporter via RXRα [3]: failed to activate the reporter
effect on IL-8 promoter activity [4]: no effect
proteinase sensitivity of PPARα [5]: did not affect the proteinase sensitivity
activation of PPARδ [6]: neither did AJA activate PPARδ
